System: Mycobacterium tuberculosis
Assay: Antituberculosis activity against Mycobacterium tuberculosis H37Rv ATCC 27294 by modified BACTEC 460 method
Type: functional, organism-based
Settings: for IC50 / IC90: Mycobacterium tuberculosis, H37Rv ATCC 27294

Structure (SMILES)	pIC90	IC50 (read-out: pIC50 (converted)) [µM]	IC90 [µM]	IC50 (read-out: IC50) [µM]
Cc1ccc(C2=NN[C@@H](c3cn(-c4ccccc4)nc3-c3ccc(F)cc3)C2)cc1	5.39	5.37		
Nc1nc(-c2ccccc2)cc(-c2cn(-c3ccccc3)nc2-c2ccc(F)cc2)n1	5	5.89	9.94	5.94
Fc1ccc(-c2nn(-c3ccccc3)cc2[C@H]2CC(c3ccc(Cl)cc3)=NN2)cc1	4.16	43.7	68.7	43.3
COc1ccc(C2=NN[C@@H](c3cn(-c4ccccc4)nc3-c3ccc(F)cc3)C2)cc1	4.91	0.468	12.3	0.47
Nc1nc(-c2ccc(Cl)cc2)cc(-c2cn(-c3ccccc3)nc2-c2ccc(F)cc2)n1	<3.65	95.5	> 226	95.5
O=C(/C=C/c1cn(-c2ccccc2)nc1-c1ccc(F)cc1)c1ccccc1	4.79	10.5	16.3	10.5
COc1ccc(C(=O)/C=C/c2cn(-c3ccccc3)nc2-c2ccc(F)cc2)cc1	5	6.46	10.1	6.39
Cc1ccc(C(=O)/C=C/c2cn(-c3ccccc3)nc2-c2ccc(F)cc2)cc1	5.1	7.24	7.96	7.18
O=C(/C=C/c1cn(-c2ccccc2)nc1-c1ccc(F)cc1)c1ccc(Cl)cc1	4.15	33.9	71.3	33.9
O=C(/C=C/c1cn(-c2ccccc2)nc1-c1ccc(F)cc1)c1ccc(F)cc1	5.09	7.08	8.09	7.14
O=C(/C=C/c1cn(-c2ccccc2)nc1-c1ccc(F)cc1)c1ccc(O)cc1	5.07	7.41	8.47	7.46
O=C(/C=C/c1cn(-c2ccccc2)nc1-c1ccc(F)cc1)c1ccccc1O	4.34	26.3	45.4	26.2
O=C(/C=C/c1cn(-c2ccccc2)nc1-c1ccc(F)cc1)c1ccc([N+](=O)[O-])cc1	4.27	12.6	53.5	12.7
O=C(/C=C/c1cn(-c2ccccc2)nc1-c1ccc(F)cc1)c1ccc(Br)cc1	4.74	9.77	18.1	9.77
O=C(/C=C/c1cn(-c2ccccc2)nc1-c1ccc(F)cc1)c1cccs1	4.87	8.13	13.5	8.08
Oc1ccc(C2=NN[C@@H](c3cn(-c4ccccc4)nc3-c3ccc(F)cc3)C2)cc1	4.3	30.9	49.8	31
Oc1ccccc1C1=NN[C@@H](c2cn(-c3ccccc3)nc2-c2ccc(F)cc2)C1	4.5	28.2	31.7	28.1
O=[N+]([O-])c1cccc(C2=NN[C@@H](c3cn(-c4ccccc4)nc3-c3ccc(F)cc3)C2)c1	4.16	38.9	68.7	39
Fc1ccc(-c2nn(-c3ccccc3)cc2[C@H]2CC(c3ccc(Br)cc3)=NN2)cc1	4.64	7.94	22.9	7.9
Nc1ccc(C2=NN[C@@H](c3cn(-c4ccccc4)nc3-c3ccc(F)cc3)C2)cc1	3.9	74.1	127	74.4
O=C(c1ccccc1)N1N=C(c2ccccc2)C[C@@H]1c1cn(-c2ccccc2)nc1-c1ccc(F)cc1	4.06	50.1	86.4	50.4
COc1ccc(C2=NN(C(=O)c3ccccc3)[C@@H](c3cn(-c4ccccc4)nc3-c3ccc(F)cc3)C2)cc1	4.62	13.8	23.8	13.8
Cc1ccc(C2=NN(C(=O)c3ccccc3)[C@@H](c3cn(-c4ccccc4)nc3-c3ccc(F)cc3)C2)cc1	5.46	3.02	3.48	3.02
O=C(c1ccccc1)N1N=C(c2ccc(Cl)cc2)C[C@@H]1c1cn(-c2ccccc2)nc1-c1ccc(F)cc1	<3.72	51.3	> 192	51.4
O=C(c1ccccc1)N1N=C(c2ccc(F)cc2)C[C@@H]1c1cn(-c2ccccc2)nc1-c1ccc(F)cc1	5.49	2.63	3.22	2.65
O=C(c1ccccc1)N1N=C(c2ccc([N+](=O)[O-])cc2)C[C@@H]1c1cn(-c2ccccc2)nc1-c1ccc(F)cc1	<3.73	57.5	> 187	57.4

Structure (SMILES)	pIC90	IC50 (read-out: pIC50 (converted)) [µM]	IC90 [µM]	IC50 (read-out: IC50) [µM]
O=C(c1ccccc1)N1N=C(c2cccc([N+](=O)[O-])c2)C[C@@H]1c1cn(-c2ccccc2)nc1-c1ccc(F)cc1	3.99	42.7	101	42.4
O=C(c1ccccc1)N1N=C(c2ccc(Br)cc2)C[C@@H]1c1cn(-c2ccccc2)nc1-c1ccc(F)cc1	4.12	38	75.7	37.8
O=C(c1ccccc1)N1N=C(c2cccs2)C[C@@H]1c1cn(-c2ccccc2)nc1-c1ccc(F)cc1	4.05	46.8	88.7	46.9
O=NN1N=C(c2ccccc2O)C[C@@H]1c1cn(-c2ccccc2)nc1-c1ccc(F)cc1	<3.63	117	> 234	119
O=NN1N=C(c2ccc([N+](=O)[O-])cc2)C[C@@H]1c1cn(-c2ccccc2)nc1-c1ccc(F)cc1	4.39	25.1	40.5	25.3
O=NN1N=C(c2cccc([N+](=O)[O-])c2)C[C@@H]1c1cn(-c2ccccc2)nc1-c1ccc(F)cc1	4.48	22.4	33.4	22.5
O=NN1N=C(c2ccc(Br)cc2)C[C@@H]1c1cn(-c2ccccc2)nc1-c1ccc(F)cc1	4.47	21.4	33.7	21.4
Nc1ccc(C2=NN(N=O)[C@@H](c3cn(-c4ccccc4)nc3-c3ccc(F)cc3)C2)cc1	4.42	20.9	37.8	20.9
O=NN1N=C(c2cccs2)C[C@@H]1c1cn(-c2ccccc2)nc1-c1ccc(F)cc1	4.33	26.3	46.3	26.4
Cc1ccc(-c2cc(-c3cn(-c4ccccc4)nc3-c3ccc(F)cc3)[nH]c(=S)n2)cc1	4.45	22.4	35.5	22.2
Fc1ccc(-c2nn(-c3ccccc3)cc2-c2cc(-c3ccc(Cl)cc3)nc(=S)[nH]2)cc1	4.74	10.2	18	10.3
Oc1ccc(-c2cc(-c3cn(-c4ccccc4)nc3-c3ccc(F)cc3)[nH]c(=S)n2)cc1	<3.64	69.2	> 227	69.2
Oc1ccccc1-c1cc(-c2cn(-c3ccccc3)nc2-c2ccc(F)cc2)[nH]c(=S)n1	4.95	8.32	11.2	8.29
O=[N+]([O-])c1ccc(-c2cc(-c3cn(-c4ccccc4)nc3-c3ccc(F)cc3)[nH]c(=S)n2)cc1	4.88	12	13.1	12.2
O=[N+]([O-])c1cccc(-c2cc(-c3cn(-c4ccccc4)nc3-c3ccc(F)cc3)[nH]c(=S)n2)c1	4.37	28.2	43	27.9
Fc1ccc(-c2nn(-c3ccccc3)cc2-c2cc(-c3ccc(Br)cc3)nc(=S)[nH]2)cc1	4.42	115		
Nc1ccc(-c2cc(-c3cn(-c4ccccc4)nc3-c3ccc(F)cc3)[nH]c(=S)n2)cc1	<3.64	21.9	> 228	22.1
Fc1ccc(-c2nn(-c3ccccc3)cc2-c2cc(-c3cccs3)nc(=S)[nH]2)cc1	4.06	22.4	86.4	22.6
Nc1nc(-c2ccc(F)cc2)cc(-c2cn(-c3ccccc3)nc2-c2ccc(F)cc2)n1	4.07	37.2	84.3	36.8
Nc1nc(-c2ccc(O)cc2)cc(-c2cn(-c3ccccc3)nc2-c2ccc(F)cc2)n1	6.05	0.468	0.88	0.47
Nc1nc(-c2ccccc2O)cc(-c2cn(-c3ccccc3)nc2-c2ccc(F)cc2)n1	4.18	57.5	65.9	57
Nc1nc(-c2ccc([N+](=O)[O-])cc2)cc(-c2cn(-c3ccccc3)nc2-c2ccc(F)cc2)n1	<3.66	75.9	> 220	75.4
Nc1nc(-c2cccc([N+](=O)[O-])c2)cc(-c2cn(-c3ccccc3)nc2-c2ccc(F)cc2)n1	<3.66	52.5	> 220	52.9
Nc1nc(-c2ccc(Br)cc2)cc(-c2cn(-c3ccccc3)nc2-c2ccc(F)cc2)n1	4.84	10.7	14.5	10.6
Nc1ccc(-c2cc(-c3cn(-c4ccccc4)nc3-c3ccc(F)cc3)nc(N)n2)cc1	4.82	13.8	15	13.8
